Test results published in US20200261543A1, “COMBINATION THERAPY FOR TREATMENT OF BONE DISORDERS” (University of Copenhagen, priority 2017, published 2020).

Columns and labels:
[1] = system: serum C-terminal cross-linking telopeptide of type I collagen (CTX); experiment: Serum CTX (bone resorption) after s.c. injection in healthy young men, Example 1/3 study; assay type: in vivo, human; conditions: for reduction in bone resorption (CTX): 200 μg GIP and 800 μg GLP-2, Example 1 as summarised in Example 2; for time of maximum effect on bone resorption (CTX): GIP 200 μg or GLP-2 800 μg s.c.
Description: (§1) Eight healthy young men were enrolled. The study included three study days in randomised order (with a minimum of 1 week washout between study days) where human GIP (200 μg), human GLP-2 (800 μg), or placebo was injected subcutaneously. Participants arrived in the morning (fasted overnight) and received the injection around 8.30 a.m. Blood samples were collected before (−25 and −10 min) and every 30 minutes after injection (30, 60, 90, 120, 180 and 240 min). After last participant's last visit, bone resorption was determined by measurements of serum C-terminal cross-linking telopeptide of type I collagen (CTX; IDS Immunodiagnostic Systems GmbH, Frankfurt am Main, Germany)
(§2) Eight healthy young men were enrolled, and the study was conducted as outlined in Example 1. After last participant's last visit, bone resorption was determined by measurements of CTX (IDS Immunodiagnostic Systems GmbH, Frankfurt am Main, Germany) and bone formation was determined by measurements of serum N-terminal propeptide of type 1 collagen (P1NP; IDS Immunodiagnostic Systems GmbH, Frankfurt am Main, Germany). In addition, serum concentration of parathyroid hormone (PTH; IDS Immunodiagnostic Systems GmbH, Frankfurt am Main, Germany) was measured.

[2] = system: serum N-terminal propeptide of type 1 collagen (P1NP); experiment: Serum P1NP (bone formation) after s.c. injection, Example 3; assay type: in vivo, human; conditions: for time of maximum effect on bone formation (P1NP): GIP 200 μg or GLP-2 800 μg s.c.
Description: as §1, §2

[3] = system: parathyroid hormone (PTH); experiment: Serum PTH after s.c. injection, Example 3; assay type: in vivo, human; conditions: for time of maximum effect on PTH: GIP 200 μg or GLP-2 800 μg s.c.; for PTH level at maximum effect: 15 min after injection
Description: Eight healthy young men were enrolled. The study included three study days in randomised order (with a minimum of 1 week washout between study days) where human GIP (200 μg), human GLP-2 (800 μg), or placebo was injected subcutaneously. Participants arrived in the morning (fasted overnight) and received the injection around 8.30 a.m. […] After last participant's last visit, bone resorption was determined by measurements of serum C-terminal cross-linking telopeptide of type I collagen (CTX; IDS Immunodiagnostic Systems GmbH, Frankfurt am Main, Germany)
as §2

[4] = system: CTX; experiment: CTX (bone resorption) after s.c. injection alone or in combination, Example 2/4 study; assay type: in vivo, human; conditions: Example 4; for time of maximum effect on bone resorption (CTX): GIP 100 μg, GLP-2 400 μg or both s.c.
Description: (§3) Ten healthy young men are enrolled and the study includes four study days in randomised order (with a minimum of 1 week washout between study days) where human GIP (100 μg), human GLP-2 (400 μg), GIP+GLP-2 (100 μg+400 μg), or placebo are injected subcutaneously. The participants arrive in the morning (fasted overnight) and receive the injection around 8.30 a.m. Blood samples are collected before (−25 and −10) and every 30 minutes after injection (30, 60, 90, 120, 180 and 240 min) injection. After last participant's last visit, samples are analysed for concentrations of bone resorption markers (CTX).
as §2, with “Ten” for “Eight”, “are enrolled” for “were enrolled,”, “2.” for “1.”, “measured. The doses of GIP and GLP-2 were selected as discussed in example 2.” for “measured.”

[5] = system: serum N-terminal propeptide of type 1 collagen (P1NP); experiment: Serum P1NP (bone formation) after s.c. injection alone or in combination, Example 4; assay type: in vivo, human; conditions: for time of maximum effect on bone formation (P1NP): GIP 100 μg or GLP-2 400 μg s.c.
Description: as §3
as §2, with “Ten” for “Eight”, “are enrolled” for “were enrolled,”, “2.” for “1.”, “measured. The doses of GIP and GLP-2 were selected as discussed in example 2.” for “measured.”

[6] = system: parathyroid hormone (PTH); experiment: Serum PTH after s.c. injection alone or in combination, Example 4; assay type: in vivo, human; conditions: for time of maximum effect on PTH: GIP 100 μg, GLP-2 400 μg or both s.c.
Description: Ten healthy young men are enrolled and the study includes four study days in randomised order (with a minimum of 1 week washout between study days) where human GIP (100 μg), human GLP-2 (400 μg), GIP+GLP-2 (100 μg+400 μg), or placebo are injected subcutaneously. The participants arrive in the morning (fasted overnight) and receive the injection around 8.30 a.m. […] After last participant's last visit, samples are analysed for concentrations of bone resorption markers (CTX).
as §2, with “Ten” for “Eight”, “are enrolled” for “were enrolled,”, “2.” for “1.”, “measured. The doses of GIP and GLP-2 were selected as discussed in example 2.” for “measured.”

[7] = system: serum C-terminal cross-linking telopeptide of type I collagen (CTX); experiment: Nocturnal CTX (bone resorption) in postmenopausal women, Example 6; assay type: in vivo, human
Description: Ten healthy postmenopausal women are enrolled and the study includes four study days in randomised order (with a minimum of 1 week washout between study days) where human GIP (hGIP 100 μg), human GLP-2 ([…]), hGIP+hGLP-2 (100 μg+400 μg), or placebo, are injected subcutaneously. The participants arrive in the evening around 9 p.m. (fasted from ˜7 p.m.) and receive the injections at 10 p.m. Blood samples are collected before (−10 and −5 min) and after injection (7, 15, 30, 45, 60, 90, 120, 180 and 240 min). Bone resorption was determined by measurements of serum C-terminal cross-linking telopeptide of type I collagen (CTX; IDS Immunodiagnostic Systems GmbH, Frankfurt am Main, Germany). The doses of GIP and GLP-2 were selected as discussed in example 2.

[8] = system: serum C-terminal cross-linking telopeptide of type I collagen (CTX); experiment: Serum CTX (bone resorption) after s.c. GLP-1, Example 5; assay type: in vivo, human; conditions: GLP-1 1.5 nmol/kg s.c.
Description: Eight healthy young people were enrolled (five male, three female). […] Participants arrived in the morning after an overnight fast. Blood samples were collected before (−15 and 0 min) and after injection (15, 30, 45, 60, 90 and 120 min). After last participant's last visit, bone resorption was determined by measurements of serum C-terminal cross-linking telopeptide of type I collagen (CTX; IDS Immunodiagnostic Systems GmbH, Frankfurt am Main, Germany).

[9] = in vivo; cited from earlier work

For “HADGSFSDEMNTILDNLAARDFINWLIQTKITD [GLP-2]”, the “reduction in bone resorption (CTX)” value [1] was roughly 50%, the “time of maximum effect on bone resorption (CTX)” value (“time of maximum effect … (CTX)” below) ([1]; Example 1) was 180 min and the “time of maximum effect … (CTX)” value ([1]; Example 3) was 180 min. For the same substance, the “bone resorption (CTX) at maximum effect” value ([1]; GLP-2 800 μg s.c., 180 min after administration, Example 3 (completed study)) was 60.5±14.1 % of base line, the “bone resorption (CTX) at maximum effect” value ([1]; GLP-2 800 μg s.c., 180 min after administration, healthy young men, Example 1) was 63.4±3.4 % of base line and the “time of maximum effect on bone formation (P1NP)” value (“time of maximum effect … (P1NP)” below) [2] was 45 min. For the same substance, the “bone formation (P1NP) at maximum effect (reduction)” value ([2]; GLP-2 800 μg s.c., 45 min after injection) was 88.1±8.5 % of base line, the “time of maximum effect on PTH” value [3] was 15 min and the “PTH level at maximum effect” value ([3]; GLP-2 800 μg s.c.) was 71.9±13.9 % of basal levels. The “time of maximum effect … (CTX)” value [4] was 210 min, the “bone resorption (CTX) at maximum effect” value ([4]; GLP-2 400 μg s.c. alone, 210 min after injection) was 58.2±16.0 % of basal and the “time of maximum effect … (P1NP)” value [5] was 60 min. The “bone formation (P1NP) at maximum effect (reduction)” value ([5]; GLP-2 400 μg s.c., 60 min after injection) was 88.2±9.4 % of base line, the “time of maximum effect on PTH” value [6] was 45 min and the “PTH level at maximum effect” value ([6]; GLP-2 400 μg s.c., 45 min after injection) was 65.7±16.8 % of basal levels. The “nocturnal bone resorption (CTX) compared to placebo” value ([7]; GLP-2 400 μg s.c. at 10 p.m.) was “reduced bone resorption during the entire study period”.
With “YAEGTFISDYSIAMDKIHQQDFVNWLLAQKGKKNDWKHNITQ [GIP]” the “reduction in bone resorption (CTX)” value [1] was roughly 50%, the “time of maximum effect … (CTX)” value ([1]; Example 1) was 90 min and the “time of maximum effect … (CTX)” value ([1]; Example 3) was 90 min. For the same substance, the “bone resorption (CTX) at maximum effect” value ([1]; GIP 200 μg s.c., 90 min after injection, Example 3 (completed study)) was 55.3±17.9 % of base line, the “bone resorption (CTX) at maximum effect” value ([1]; GIP 200 μg s.c., 90 min after injection, healthy young men, Example 1) was 56.2±11.2 % of base line and the “time of maximum effect … (P1NP)” value [2] was 30 min. The “bone formation (P1NP) at maximum effect (increase)” value ([2]; GIP 200 μg s.c., 30 min after injection) was 115.1±6.2 % of base line, the “time of maximum effect on PTH” value [3] was 15 min and the “PTH level at maximum effect” value ([3]; GIP 200 μg s.c.) was 71.2±11.4 % of basal levels. The “bone resorption (CTX) at maximum effect” value ([4]; GIP 100 μg s.c. alone, 90 min after administration) was 57.6±17.9 % of basal, the “time of maximum effect … (CTX)” value [4] was 90 min and the “time of maximum effect … (P1NP)” value [5] was 30 min. The “bone formation (P1NP) at maximum effect (increase)” value ([5]; GIP 100 μg s.c., 30 min after injection) was 111.1±9.0 % of base line, the “PTH level at maximum effect” value ([6]; GIP 100 μg s.c., 15 min after injection) was 73.0±19.2 % of basal levels and the “time of maximum effect on PTH” value [6] was 15 min. For the same substance, the “nocturnal bone resorption (CTX) compared to placebo” value ([7]; GIP 100 μg s.c. at 10 p.m.) was “reduced bone resorption was seen from 30 min to 120 min”.
In the case of “GLP-1: human glucagon-like peptide-1; which form (SEQ ID NO: 7, 8 or 9) was injected is not stated”, the “time of maximum effect … (CTX)” value [8] is listed as 120 min, the “bone resorption (CTX) at maximum effect” value ([8]; 120 min after injection, healthy young people) is listed as 74.4±3.7 % of base line and the fasting plasma levels [9] is listed as 0 to 15 pmol/L.
